This experiment concerns the target GST-Xa-hAAK1 (Homo sapiens (Human), UniProt Q2M2I8). The experiment is described as follows: AAK1 Kinase Assay.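 Also: each compound tested across an eleven-point concentration series, with IC50 obtained through non-linear regression fitting.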 The experiment is classed as biochemical. Conditions: bacterially expressed GST-Xa-hAAK1 3.5 nM; ATP 22 μM; peptide substrate 1.5 μM; 3 hours at room temperature; Caliper LabChip 3000.
Chain of GST-Xa-hAAK1 (Q2M2I8 whole entry): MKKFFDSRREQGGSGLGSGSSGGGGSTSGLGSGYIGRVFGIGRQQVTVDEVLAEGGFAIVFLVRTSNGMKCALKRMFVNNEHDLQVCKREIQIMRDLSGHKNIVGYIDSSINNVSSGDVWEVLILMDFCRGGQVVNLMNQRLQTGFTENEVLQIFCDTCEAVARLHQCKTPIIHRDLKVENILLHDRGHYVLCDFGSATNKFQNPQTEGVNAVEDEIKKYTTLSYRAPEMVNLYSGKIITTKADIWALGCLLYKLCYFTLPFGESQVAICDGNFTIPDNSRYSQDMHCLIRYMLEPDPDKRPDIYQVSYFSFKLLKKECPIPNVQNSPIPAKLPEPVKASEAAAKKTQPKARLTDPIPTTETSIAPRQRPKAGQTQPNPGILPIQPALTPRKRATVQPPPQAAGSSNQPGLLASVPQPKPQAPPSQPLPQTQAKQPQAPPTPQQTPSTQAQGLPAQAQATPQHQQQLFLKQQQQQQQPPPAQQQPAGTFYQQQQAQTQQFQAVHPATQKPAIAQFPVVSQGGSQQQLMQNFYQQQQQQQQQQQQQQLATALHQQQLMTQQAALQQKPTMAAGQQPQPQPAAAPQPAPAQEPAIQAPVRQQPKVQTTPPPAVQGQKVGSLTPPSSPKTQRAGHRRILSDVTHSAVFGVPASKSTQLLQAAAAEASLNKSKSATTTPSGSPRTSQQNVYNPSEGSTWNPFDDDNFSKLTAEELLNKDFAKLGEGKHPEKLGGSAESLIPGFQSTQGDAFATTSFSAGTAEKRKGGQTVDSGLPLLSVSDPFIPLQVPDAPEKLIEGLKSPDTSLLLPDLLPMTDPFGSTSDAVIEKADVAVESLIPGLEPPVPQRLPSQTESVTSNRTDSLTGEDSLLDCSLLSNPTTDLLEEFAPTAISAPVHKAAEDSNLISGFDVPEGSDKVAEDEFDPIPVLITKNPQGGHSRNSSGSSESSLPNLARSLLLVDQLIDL
As to `CC(C)C[C@](C)(N)COc1ccc(-c2ccnc3ccccc23)nc1C(F)F` [Example 118, (S)-1-((2-(difluoromethyl)-6-(quinolin-4-yl)pyridin-3-yl)oxy)-2,4-dimethylpentan-2-amine], the IC50 turned out to be 0.85 nM.
On to `CC(C)C[C@@](N)(CF)COc1ccc(-c2ccnc(C(F)F)c2)nc1C(F)F` [Example 183, (S)-1-((2′,6-bis(difluoromethyl)-[2,4′-bipyridin]-5-yl)oxy)-2-(fluoromethyl)-4-methylpentan-2-amine], for which the 50% inhibitory concentration (IC50) came to 8.8 nM.
With `CC(C)C[C@@](N)(CF)COc1cnc(-c2ccnc(C(F)F)c2)cc1C(F)F` [Example 184, (S)-1-((2′,4-bis(difluoromethyl)-[2,4′-bipyridin]-5-yl)oxy)-2-(fluoromethyl)-4-methylpentan-2-amine] the figure was 3.3 nM; with `Cc1cc(-c2ccnc(F)c2)ccc1OC[C@@](C)(N)CC(C)C` [Example 92, (S)-1-(4-(2-fluoropyridin-4-yl)-2-methylphenoxy)-2,4-dimethylpentan-2-amine], 5.4 nM; with `COC(=O)Nc1nccc(-c2ccc(OC[C@@](C)(N)CC(C)C)c(C)n2)c1F` [Example 157, (S)-methyl (5-((2-amino-2,4-dimethylpentyl)oxy)-3′-fluoro-6-methyl-[2,4′-bipyridin]-2′-yl)carbamate], 19 nM.
With `Cc1cc(-c2ccc(OC[C@@](C)(N)CC(C)C)c(C(F)F)c2)ccn1` [Example 50, (S)-1-(2-(difluoromethyl)-4-(2-methylpyridin-4-yl)phenoxy)-2,4-dimethylpentan-2-amine] the figure was 0.38 nM.
With `COC(=O)Nc1cc(-c2ccc(OC[C@@H](N)CC(C)C)c(F)c2)ccn1` [Example 13, (S)-methyl (4-(4-((2-amino-4-methylpentyl)oxy)-3-fluorophenyl)pyridin-2-yl)carbamate] the figure was 1.1 nM; with `CC(C)C[C@](C)(N)COc1ccc(-c2ccnc3ccccc23)cc1C#N` [Example 104, (S)-2-((2-amino-2,4-dimethylpentyl)oxy)-5-(quinolin-4-yl)benzonitrile], 0.83 nM; with `Cc1cc(-c2ccc(OC[C@@H](N)CC(C)C)c(-c3ccno3)c2)ccn1` [Example 18, (S)-1-(2-(isoxazol-5-yl)-4-(2-methylpyridin-4-yl)phenoxy)-4-methylpentan-2-amine], 5 nM.
Take `CCc1cc(-c2cc(C(F)F)c(OC[C@](C)(N)CC(C)C)cn2)ccn1` [Example 170, (R)-1-((4-(difluoromethyl)-2′-ethyl-[2,4′-bipyridin]-5-yl)oxy)-2,4-dimethylpentan-2-amine]: the IC50 was 285 nM.
Regarding `CC(C)C[C@](C)(N)COc1cnc(-c2ccnc3cc(F)ccc23)cc1C(F)F` [Example 131, (S)-1-((4-(difluoromethyl)-6-(7-fluoroquinolin-4-yl)pyridin-3-yl)oxy)-2,4-dimethylpentan-2-amine], inhibition was half-maximal at 0.82 nM (IC50).
`Cc1cc(-c2cc(C(F)F)c(OC[C@@](N)(CF)CC(C)C)cn2)ccn1` [Example 188, (R)-1-((4-(difluoromethyl)-2′-methyl-[2,4′-bipyridin]-5-yl)oxy)-2-(fluoromethyl)-4-methylpentan-2-amine] returned a 50% inhibitory concentration (IC50) of 92 nM.
With `COc1cc(-c2ccnc3ccccc23)cnc1OC[C@@](C)(N)CC(C)C` [Example 79, (S)-1-((3-methoxy-5-(quinolin-4-yl)pyridin-2-yl)oxy)-2,4-dimethylpentan-2-amine] the figure was 16 nM.
With `CC(C)C[C@](C)(N)COc1cnc(-c2ccnc(C(F)F)c2)cc1C(F)F` [Example 124, (S)-1-((2′,4-bis(difluoromethyl)-[2,4′-bipyridin]-5-yl)oxy)-2,4-dimethylpentan-2-amine] the figure was 1.2 nM; with `CC(C)C[C@](C)(N)COc1ncc(-c2ccnc3ccc(F)cc23)cc1C(F)F` [Example 200, (S)-1-((3-(difluoromethyl)-5-(6-fluoroquinolin-4-yl)pyridin-2-yl)oxy)-2,4-dimethylpentan-2-amine], 1.2 nM; with `COC(=O)Nc1cc(-c2ccc(OC[C@@H](N)CC(C)C)c(-c3ccno3)c2)ccn1` [Example 14, (S)-methyl (4-(4-((2-amino-4-methylpentyl)oxy)-3-(isoxazol-5-yl)phenyl)pyridin-2-yl)carbamate], 0.87 nM.
For `CC(=O)Nc1cc(-c2ccc(OC[C@@](C)(N)CC(C)C)c(C(F)F)c2)ccn1` [Example 23, (S)—N-(4-(4-((2-amino-2,4-dimethylpentyl)oxy)-3-(difluoromethyl)phenyl)pyridin-2-yl)acetamide], inhibition was half-maximal at 0.76 nM (IC50).
Compound `CC(C)C[C@](C)(N)COc1cnc(-c2ccnc3ccc(C(F)(F)F)cc23)cc1C(F)F` [Example 133] yielded an IC50 of 0.92 nM.
With `Cc1cc(-c2ccnc3cc(F)ccc23)ncc1OC[C@@](C)(N)CC(C)C` [Example 232, (S)-1-((6-(7-fluoroquinolin-4-yl)-4-methylpyridin-3-yl)oxy)-2,4-dimethylpentan-2-amine] the figure was 0.41 nM; with `CC(C)C[C@H](N)COc1ccc(-c2ccnc(N)c2)cc1C#N` [Example 4, (S)-2-((2-amino-4-methylpentyl)oxy)-5-(2-aminopyridin-4-yl)benzonitrile], 2.8 nM.
As for `Cc1cc(-c2ccc(OC[C@@](C)(N)CC(C)C)c(C)c2)ccn1` [Example 90, (S)-2,4-dimethyl-1-(2-methyl-4-(2-methylpyridin-4-yl)phenoxy)pentan-2-amine], the figure is 2.6 nM; as for `Cc1cc(-c2ccc(OC[C@@H](N)CC(C)C)c(C#N)c2)cnn1` [Example 109, (S)-2-((2-amino-4-methylpentyl)oxy)-5-(6-methylpyridazin-4-yl)benzonitrile], 340 nM; as for `COC(=O)Nc1cc(-c2ccc(OC[C@@](C)(N)CC(C)C)c(CO)c2)ccn1` [Example 32, (S)-methyl (4-(4-((2-amino-2,4-dimethylpentyl)oxy)-3-(hydroxymethyl)phenyl)pyridin-2-yl)carbamate], 4.5 nM.
With `Cc1nccc(-c2ccc(OC[C@@](C)(N)CC(C)C)c(C(F)F)n2)n1` [Example 139, (S)-1-((2-(difluoromethyl)-6-(2-methylpyrimidin-4-yl)pyridin-3-yl)oxy)-2,4-dimethylpentan-2-amine] the figure was 0.77 nM.
With `CC(C)C[C@](C)(N)COc1cnc(-c2ccnc3ccccc23)cc1C(F)F` [Example 121, (S)-1-((4-(difluoromethyl)-6-(quinolin-4-yl)pyridin-3-yl)oxy)-2,4-dimethylpentan-2-amine], half-maximal inhibition (IC50) required 0.3 nM.
With `Cc1cc(-c2ccc(OC[C@@](C)(N)CC(C)C)c(C(F)(F)F)c2)c2ccccc2n1` [Example 216, (S)-2,4-dimethyl-1-(4-(2-methylquinolin-4-yl)-2-(trifluoromethyl)phenoxy)pentan-2-amine] the figure was 25 nM; with `COC(=O)Nc1cc(-c2cc(C(F)(F)F)c(OC[C@](C)(N)CC(C)C)cn2)ccn1` [Example 166, (R)-methyl (5-((2-amino-2,4-dimethylpentyl)oxy)-4-(trifluoromethyl)-[2,4′-bipyridin]-2′-yl)carbamate], 20 nM.
With `Cc1cc(-c2cc(C(F)F)c(OC[C@@](C)(N)CC(C)C)cn2)cnn1` [Example 162, (S)-1-((4-(difluoromethyl)-6-(6-methylpyridazin-4-yl)pyridin-3-yl)oxy)-2,4-dimethylpentan-2-amine], the IC50 was determined as 530 nM.

The term IC50 denotes the midpoint of a concentration-inhibition curve. A lower IC50 goes with inhibition by little substance.

The record behind these values is patent US9902722B2, “Biaryl kinase inhibitors” (BRISTOL-MYERS SQUIBB COMPANY, priority 2014, dated 2018).
